We go through seven molecules from BindingDB's records for doi:10.1021/acs.jmedchem.7b00585 (The Scripps Research Institute, 2017).

Assay [1] has as its target T1, Estrogen receptor (Homo sapiens, UniProt P03372).
T1 sequence (P03372 whole entry): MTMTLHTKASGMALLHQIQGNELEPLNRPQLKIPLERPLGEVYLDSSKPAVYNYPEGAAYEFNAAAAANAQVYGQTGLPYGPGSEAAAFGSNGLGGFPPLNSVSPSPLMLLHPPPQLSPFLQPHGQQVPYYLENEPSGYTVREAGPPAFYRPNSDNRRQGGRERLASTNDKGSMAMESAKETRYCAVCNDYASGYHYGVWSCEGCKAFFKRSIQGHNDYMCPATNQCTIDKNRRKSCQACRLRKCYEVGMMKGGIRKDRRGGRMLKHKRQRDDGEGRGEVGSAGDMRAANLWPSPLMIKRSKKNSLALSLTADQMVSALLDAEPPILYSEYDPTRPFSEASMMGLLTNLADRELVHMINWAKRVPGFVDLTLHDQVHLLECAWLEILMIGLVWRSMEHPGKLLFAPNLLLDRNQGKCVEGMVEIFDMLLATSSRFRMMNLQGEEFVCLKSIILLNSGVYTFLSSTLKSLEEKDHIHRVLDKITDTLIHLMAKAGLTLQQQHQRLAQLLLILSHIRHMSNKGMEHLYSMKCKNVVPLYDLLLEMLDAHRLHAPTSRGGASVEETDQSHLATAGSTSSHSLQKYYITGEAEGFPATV
As to the kind of experiment: (§1) Displacement of [3H]estradiol from full-length human ERalpha receptor by scintillation counting. Background: Loss of bound radioactivity is the signal in a displacement assay; it reports binding, not function.

Assay [2] deals with T1, Estrogen receptor. As to the kind of experiment: ChEBML_1664056.
Text: as §1

Molecules are shown by their SMILES.

As a reminder, the Ki is a dissociation constant, usually derived from enzyme kinetics or from competition with a known ligand. In turn, `O=C(/C=C/c1ccc(C(=C2C3CC4CC(C3)CC2C4)c2ccc(O)cc2)cc1)OCCCO` registered a Ki in assay [1] of 0.71 nM.
`COC(=O)/C=C/c1ccc(C(=C2C3CC4CC(C3)CC2C4)c2ccc(O)cc2)cc1` registered a Ki in assay [1] of 0.43 nM.
The same measure, in the same setting: in the case of `O=C(/C=C/c1ccc(C(=C2C3CC4CC(C3)CC2C4)c2ccc(O)cc2)cc1)NCCCO` it was 0.43 nM.
Turning to `CCCCN(C)C(=O)/C=C/c1ccc(C(=C2C3CC4CC(C3)CC2C4)c2ccc(O)cc2)cc1`, affinity in assay [1] was put at a Ki of 0.71 nM.
As for `NCCCNC(=O)/C=C/c1ccc(C(=C2C3CC4CC(C3)CC2C4)c2ccc(O)cc2)cc1`, in assay [1], the affinity, expressed as Ki, was 0.37 nM.
`CCCCNC(=O)/C=C/c1ccc(C(=C2C3CC4CC(C3)CC2C4)c2ccc(O)cc2)cc1` gave a Ki in assay [2] of 0.71 nM.
For `O=C(/C=C/c1ccc(C(=C2C3CC4CC(C3)CC2C4)c2ccc(O)cc2)cc1)OCCO`, in assay [1], the Ki is 0.37 nM.
